Laboratory results from patent publication US9115127B2 (AMGEN INC., priority 2010, dated 2015).
Like-named read-outs stand apart in the source and are kept apart here.

Molecular target: T1, wild-type human ALK (cytoplasmic domain, amino acids 1058-1620, N-terminal GST fusion) (Homo sapiens, UniProt Q9UM73)
T1 construct: The cytoplasmic domain (amino acids 1058-1620) of wild-type human ALK; GST (N); made in house; host or cells: SF9 insect cells
Experiment: ALK Inhibition in Enzyme Assay (Lance TR-FRET kinase assay)
Format: biochemical
Method in brief: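 Purified enzyme phosphorylated a biotinylated peptide substrate for 90 minutes at room temperature. Reactions were stopped with 20 mM EDTA in 50 mM Tris (pH 7.5), 100 mM NaCl, 0.05% BSA, 0.1% Tween-20. Phosphopeptide was detected by TR-FRET with SA-APC and Eu-W1024 anti-phosphotyrosine antibody PT66, excitation 320 nm.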

T1 sequence (Q9UM73 1058-1620): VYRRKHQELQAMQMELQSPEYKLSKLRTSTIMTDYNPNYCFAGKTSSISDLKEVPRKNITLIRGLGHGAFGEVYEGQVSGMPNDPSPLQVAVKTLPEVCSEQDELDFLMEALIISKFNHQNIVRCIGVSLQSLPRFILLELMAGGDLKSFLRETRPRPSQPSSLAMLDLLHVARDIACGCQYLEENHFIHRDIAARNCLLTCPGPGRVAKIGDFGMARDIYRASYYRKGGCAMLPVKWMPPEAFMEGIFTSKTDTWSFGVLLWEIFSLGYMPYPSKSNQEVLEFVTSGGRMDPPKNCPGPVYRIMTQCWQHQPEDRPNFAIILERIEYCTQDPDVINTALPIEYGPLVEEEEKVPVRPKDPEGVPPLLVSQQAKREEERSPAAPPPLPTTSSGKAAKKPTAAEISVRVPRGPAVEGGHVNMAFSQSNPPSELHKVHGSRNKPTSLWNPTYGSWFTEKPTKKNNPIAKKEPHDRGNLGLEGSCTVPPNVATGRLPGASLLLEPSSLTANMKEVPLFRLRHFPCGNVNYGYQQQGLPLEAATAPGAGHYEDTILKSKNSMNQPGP

SMILES	IC50 [nM]	IC50 (2 nM enzyme, ATP 40 μM (Km apparent), 90 minutes at room temperature, mean of three replicates) [nM]
CC(C)NC(=O)[C@H]1CC[C@@H](n2/c(=N/C(=O)c3ccc(F)cc3)[nH]c3cnc(N4CCN(C)CC4)cc32)CC1 [Example 225, (E)-4-Fluoro-N-(1-(cis-4-(isopropylcarbamoyl)cyclohexyl)-6-(4-methylpiperazin-1-yl)-1H-imidazo[4,5-c]pyridin-2(3H)-ylidene)benzamide]	< 50	
CC(C)NC(=O)[C@H]1CC[C@@H](n2/c(=N/C(=O)c3ccc(F)cc3)[nH]c3cnc(NCC(C)(C)O)cc32)CC1 [Example 226, (E)-4-Fluoro-N-(6-(2-hydroxy-2-methylpropylamino)-1-(cis-4-(isopropylcarbamoyl)cyclohexyl)-1H-imidazo[4,5-c]pyridin-2(3H)-ylidene)benzamide]	< 50	
CC(C)NC(=O)[C@H]1CC[C@@H](n2/c(=N/C(=O)c3ccc(F)cc3)[nH]c3cnc(S(C)(=O)=O)cc32)CC1 [Example 236, (E)-4-Fluoro-N-(1-(cis-4-(isopropylcarbamoyl)cyclohexyl)-6-(methylsulfonyl)-1H-imidazo[4,5-c]pyridin-2(3H)-ylidene)benzamide]	< 50	
COC(=O)Nc1nc2ccc(CN3CCCCC3)cc2n1[C@H]1CC[C@@H](C(=O)NC(C)C)CC1 [Example 237, Methyl 1-(cis-4-(isopropylcarbamoyl)cyclohexyl)-6-(piperidin-1-ylmethyl)-1H-benzo[d]imidazol-2-ylcarbamate]	100 to 1000	
CC(C)NC(=O)[C@H]1CC[C@@H](n2/c(=N/C(=O)c3ccc(F)cc3)[nH]c3ccc(S(C)(=O)=O)cc32)CC1 [Example 238, (E)-4-Fluoro-N-(1-(cis-4-(isopropylcarbamoyl)cyclohexyl)-6-(methylsulfonyl)-1H-benzo[d]imidazol-2(3H)-ylidene)benzamide]	< 50	
N#C[C@]1(c2ccccn2)C[C@@H](n2/c(=N/C(=O)c3ccc(F)cc3)[nH]c3cnc(OCCN4CCCCC4)cc32)C1 [Example 240, (E)-N-(1-(trans-3-Cyano-3-(pyridin-2-yl)cyclobutyl)-6-(2-(piperidin-1-yl)ethoxy)-1H-imidazo[4,5-c]pyridin-2(3H)-ylidene)-4-fluorobenzamide]	1000 to 5000	
N#C[C@]1(c2ccccn2)C[C@H](n2/c(=N/C(=O)c3ccc(F)cc3)[nH]c3cnc(OCCN4CCCCC4)cc32)C1 [Example 241, (E)-N-(1-(cis-3-Cyano-3-(pyridin-2-yl)cyclobutyl)-6-(2-(piperidin-1-yl)ethoxy)-1H-imidazo[4,5-c]pyridin-2(3H)-ylidene)-4-fluorobenzamide]	100 to 1000	
C=CCNS(=O)(=O)c1cccc(C(=O)/N=c2\[nH]c3cnc(OCCN4CCCCC4)cc3n2[C@H]2CC[C@H](C(N)=O)CC2)c1 [Example 244, (E)-3-(N-Allylsulfamoyl)-N-(1-(trans-4-carbamoylcyclohexyl)-6-(2-(piperidin-1-yl)ethoxy)-1H-imidazo[4,5-c]pyridin-2(3H)-ylidene)benzamide]	50 to 100	
C=CCNS(=O)(=O)c1cccc(C(=O)/N=c2\[nH]c3cnc(OCCN4CCCCC4)cc3n2C2CCC(C(=O)NC)CC2)c1 [Example 245, (E)-3-(N-Allylsulfamoyl)-N-(1-((1R,4R)-4-(methylcarbamoyl)cyclohexyl)-6-(2-(piperidin-1-yl)ethoxy)-1H-imidazo[4,5-c]pyridin-2(3H)-ylidene)benzamide]		50 to 100
CNC(=O)[C@H]1CC[C@H](n2/c(=N/C(=O)c3ccc(F)cc3)[nH]c3cnc(OCCN4CCCCC4)cc32)CC1 [Example 246, (E)-4-Fluoro-N-(1-(trans-4-(methylcarbamoyl)cyclohexyl)-6-(2-(piperidin-1-yl)ethoxy)-1H-imidazo[4,5-c]pyridin-2(3H)-ylidene)benzamide]	100 to 1000	
CNC(=O)[C@H]1CC[C@H](n2/c(=N/C(=O)c3cc(F)cc(F)c3)[nH]c3cnc(OCCN4CCCCC4)cc32)CC1 [Example 249, (E)-3,5-Difluoro-N-(1-(trans-4-(methylcarbamoyl)cyclohexyl)-6-(2-(piperidin-1-yl)ethoxy)-1H-imidazo[4,5-c]pyridin-2(3H)-ylidene)benzamide]	1000 to 5000	
N#C[C@]1(c2cccc(Br)c2)C[C@@H](n2/c(=N/C(=O)c3ccc(F)cc3)[nH]c3cnc(OCCN4CCCCC4)cc32)C1 [Example 250, (E)-N-(1-(trans-3-(3-Bromophenyl)-3-cyanocyclobutyl)-6-(2-(piperidin-1-yl)ethoxy)-1H-imidazo[4,5-c]pyridin-2(3H)-ylidene)-4-fluorobenzamide]	100 to 1000	

Second part, the compound after the results:

IC50 [nM]	IC50 (2 nM enzyme, ATP 40 μM (Km apparent), 90 minutes at room temperature, mean of three replicates) [nM]	SMILES
50 to 100		CC(C)C(=O)N[C@H]1CC[C@@H](n2/c(=N/C(=O)c3ccc(F)cc3)[nH]c3ccc(CN4CCC(C(C)(C)O)CC4)cc32)CC1 [Example 227, (E)-4-Fluoro-N-(6-((4-(2-hydroxypropan-2-yl)piperidin-1-yl)methyl)-1-(cis-4-isobutyramidocyclohexyl)-1H-benzo[d]imidazol-2(3H)-ylidene)benzamide]
100 to 1000		CC(C)C(=O)N[C@H]1CC[C@@H](n2/c(=N/C(=O)c3cccc(F)c3)[nH]c3ccc(CN4CCC(C(C)(C)O)CC4)cc32)CC1 [Example 228, (E)-3-Fluoro-N-(6-((4-(2-hydroxypropan-2-yl)piperidin-1-yl)methyl)-1-(cis-4-isobutyramidocyclohexyl)-1H-benzo[d]imidazol-2(3H)-ylidene)benzamide]
50 to 100		CC(=O)N[C@H]1CC[C@H](n2/c(=N/C(=O)c3ccc(F)cc3)[nH]c3ccc(CN4CCC(C(C)(C)O)CC4)cc32)CC1 [Example 229, (E)-N-(1-(trans-4-Acetamidocyclohexyl)-6-((4-(2-hydroxypropan-2-yl)piperidin-1-yl)methyl)-1H-benzo[d]imidazol-2(3H)-ylidene)-4-fluorobenzamide]
< 50		CC(C)NC(=O)[C@H]1CC[C@@H](n2/c(=N/C(=O)c3ccc(F)cc3)[nH]c3ccc(CN4CCn5c(nnc5C(C)(C)O)C4)cc32)CC1 [Example 230, (E)-4-Fluoro-N-(6-((3-(2-hydroxypropan-2-yl)-5,6-dihydro-[1,2,4]-triazolo[4,3-a]pyrazin-7(8H)-yl)methyl)-1-(cis-4-(isopropylcarbamoyl)cyclohexyl)-1H-benzo[d]imidazol-2(3H)-ylidene)benzamide]
< 50		CC(C)(O)C1CCN(Cc2ccc3[nH]/c(=N\C(=O)c4cccc(F)c4)n([C@H]4CC[C@@H](C(N)=O)CC4)c3c2)CC1 [Example 231]
< 50		C=CCNS(=O)(=O)c1cccc(C(=O)/N=c2\[nH]c3ccc(CN4CCC(C(C)(C)O)CC4)cc3n2[C@H]2CC[C@@H](C(N)=O)CC2)c1 [Example 232, (E)-3-(N-Allylsulfamoyl)-N-(1-(cis-4-carbamoylcyclohexyl)-6-((4-(2-hydroxypropan-2-yl)piperidin-1-yl)methyl)-1H-benzo[d]imidazol-2(3H)-ylidene)benzamide]
50 to 100		CC(C)(O)C1CCN(Cc2ccc3[nH]/c(=N\C(=O)c4ccc(F)cc4)n([C@H]4CC[C@H](C(N)=O)CC4)c3c2)CC1 [Example 233, (E)-N-(1-(trans-4-Carbamoylcyclohexyl)-6-((4-(2-hydroxypropan-2-yl)piperidin-1-yl)methyl)-1H-benzo[d]imidazol-2(3H)-ylidene)-4-fluorobenzamide]
100 to 1000		CC(C)(O)C1CCN(Cc2ccc3[nH]/c(=N\C(=O)c4cccc(F)c4)n([C@H]4CC[C@H](C(N)=O)CC4)c3c2)CC1 [Example 234, (E)-N-(1-(trans-4-Carbamoylcyclohexyl)-6-((4-(2-hydroxypropan-2-yl)piperidin-1-yl)methyl)-1H-benzo[d]imidazol-2(3H)-ylidene)-3-fluorobenzamide]
< 50		C=CCNS(=O)(=O)c1cccc(C(=O)/N=c2\[nH]c3ccc(CN4CCC(C(C)(C)O)CC4)cc3n2[C@H]2CC[C@H](C(N)=O)CC2)c1 [Example 235, (E)-3-(N-Allylsulfamoyl)-N-(1-(trans-4-carbamoylcyclohexyl)-6-((4-(2-hydroxypropan-2-yl)piperidin-1-yl)methyl)-1H-benzo[d]imidazol-2(3H)-ylidene)benzamide]
< 50		CC(C)NC(=O)[C@H]1CC[C@@H](n2/c(=N/C(=O)c3ccc(F)cc3)[nH]c3ccc(N4CCS(=O)(=O)CC4)cc32)CC1 [Example 239, (E)-4-Fluoro-N-(1-(cis-4-(isopropylcarbamoyl)cyclohexyl)-6-(thiomorpholine 1,1-dioxide)-1H-benzo[d]imidazol-2(3H)-ylidene)benzamide]
100 to 1000		CC(C)(O)C1CCN(Cc2ccc3[nH]/c(=N\C(=O)c4ccc(F)cc4)n([C@H]4CC[C@]5(CC4)NC(=O)NC5=O)c3c2)CC1 [Example 242, (E)-N-(1-((5S,8S)-2,4-Dioxo-1,3-diazaspiro[4.5]decan-8-yl)-6-((4-(2-hydroxypropan-2-yl)piperidin-1-yl)methyl)-1H-benzo[d]imidazol-2(3H)-ylidene)-4-fluorobenzamide]
< 50		CC(C)(O)C1CCN(Cc2ccc3[nH]/c(=N\C(=O)c4ccc(F)cc4)n([C@H]4CC[C@@H](C(=O)NC5CNC5)CC4)c3c2)CC1 [Example 243]
1000 to 5000		NC(=O)[C@H]1CC[C@H](n2/c(=N/C(=O)c3cc(F)cc(F)c3)[nH]c3cnc(OCCN4CCCCC4)cc32)CC1 [Example 247, (E)-N-(1-(trans-4-Carbamoylcyclohexyl)-6-(2-(piperidin-1-yl)ethoxy)-1H-imidazo[4,5-c]pyridin-2(3H)-ylidene)-3,5-difluorobenzamide]
1000 to 5000		NC(=O)[C@H]1CC[C@H](n2/c(=N/C(=O)c3ccc(F)cc3)[nH]c3cnc(OCCN4CCCCC4)cc32)CC1 [Example 248, (E)-N-(1-(trans-4-Carbamoylcyclohexyl)-6-(2-(piperidin-1-yl)ethoxy)-1H-imidazo[4,5-c]pyridin-2(3H)-ylidene)-4-fluorobenzamide]
